Two compounds from ChEMBL document CHEMBL1144151, “Two novel anti-emetic principles of Alpinia katsumadai” (1999) can be followed below.

Molecules are shown by their SMILES.

As a reminder, the inhibition in vivo is the percentage by which the read-out fell short of the control.

What all share (assay type): functional
What all share (conditions): route intraperitoneal

Experiment [1] concerns Gallus gallus. Briefly: Anti-emetic activity against copper sulfate-induced emesis in 4 days old chicks assessed as inhibition of number of retching reflexes at 10 mg/kg, ip measured 10 mins after copper sulfate challenge.
In experiment [2] the test system is Gallus gallus. Briefly: Anti-emetic activity against copper sulfate-induced emesis in 4 days old chicks assessed as inhibition of number of retching reflexes at 20 mg/kg, ip measured 10 mins after copper sulfate challenge.
Experiment [3] has as its system Gallus gallus. Briefly: Anti-emetic activity against copper sulfate-induced emesis in 4 days old chicks assessed as inhibition of number of retching reflexes at 50 mg/kg, ip measured 10 mins after copper sulfate challenge.

For the compound `O=C(CCc1ccccc1)C[C@@H]1C[C@@H](c2ccccc2)c2c(cc(/C=C/c3ccccc3)oc2=O)O1` [KATSUMADAIN A], the inhibition in vivo at 10 mg/kg in the experiment on Gallus gallus [1] is 8.8%. Moreover, in the experiment on Gallus gallus [2], the inhibition in vivo at 20 mg/kg is 14.5%. Also, the inhibition in vivo at 50 mg/kg with Gallus gallus [3] is 50.2%.

In the case of `O=C(CCc1ccccc1)CC(/C=C/c1ccccc1)c1c(O)cc(/C=C/c2ccccc2)oc1=O` (centres undefined) [KATSUMADAIN B], the inhibition in vivo at 50 mg/kg in the experiment on Gallus gallus [3] was determined as 41.4%.
